Experimental data as given in US5391540A, “Substituted pyridine compounds” (Rohm and Haas Company, priority 1993, dated 1995).

Tests used:
Assay in all cases: Pre-emergent herbicidal activity (Table A)
Assay type in all cases: in vivo
Common Lambsquarters = conditions: Chenopodium album, pre-emergence, Colq, 11.2 kg/ha, 10-14 days, read-out: herbicidal rating (% inhibition)
Procedure: (§1) The herbicidal ratings used in Tables A and B were assigned according to a scale based on the percent inhibition of each plant species. The herbicide rating symbols in Tables A and B are defined as follows: […]
(§2) One set of pre-emergent tests was conducted as follows:
(§3) Topsoil was placed in a pan and compacted to a depth of 0.95 to 1.27 cm. from the top of the pan. A predetermined number of seeds of each of several monocotyledonous and dicotyledonous annual plant species and/or vegetative propagules of various perennial plant species were placed on top of the soil. The soil required to level fill a pan after seeding or adding vegetative propagules was weighed into another pan. A known amount of the test compound dissolved or suspended in an organic solvent or water and applied in acetone or water as a carrier was thoroughly mixed with this cover soil, and the herbicide/soil mixture was used as a cover layer for the previously prepared pan.
(§4) The plant species usually regarded as weeds which were utilized in one set of pre-emergent activity tests, the data for which are shown in Table A, are identified by letter headings printed diagonally above the columns according to the following legend: […]

Velvetleaf = conditions: Abutilon theophrasti, pre-emergence, Vele, 11.2 kg/ha, 10-14 days, read-out: herbicidal rating (% inhibition)
Procedure: as §1, §2, §3, §4

Rhizome Johnsongrass = conditions: Sorghum halepense, pre-emergence, Rhjg, 11.2 kg/ha, 10-14 days, read-out: herbicidal rating (% inhibition)
Procedure: as §1, §2, §3, §4

Cocklebur = conditions: Xanthium strumarium, pre-emergence, Cobu, 11.2 kg/ha, 10-14 days, read-out: herbicidal rating (% inhibition)
Procedure: as §1, §2, §3, §4

Pennsylvania Smartweed = conditions: pre-emergence, Pesw, 11.2 kg/ha, 10-14 days, read-out: herbicidal rating (% inhibition)
Procedure: as §1, §2, §3, §4

Barnyardgrass = conditions: Echinochloa crus-galli, pre-emergence, Bygr, 11.2 kg/ha, 10-14 days, read-out: herbicidal rating (% inhibition)
Procedure: as §1, §2, §3, §4

Morningglory = conditions: Ipomoea, pre-emergence, Mogl, 11.2 kg/ha, 10-14 days, read-out: herbicidal rating (% inhibition)
Procedure: as §1, §2, §3, §4

Quackgrass = conditions: pre-emergence, Rhqg, 11.2 kg/ha, 10-14 days, read-out: herbicidal rating (% inhibition)
Procedure: as §1, §2, §3, §4

Canada thistle = conditions: Cirsium arvense, pre-emergence, Cath, 11.2 kg/ha, 10-14 days, read-out: herbicidal rating (% inhibition)
Procedure: as §1, §2, §3, §4

Yellow Nutsedge = conditions: Cyperus, pre-emergence, Yens, 11.2 kg/ha, 10-14 days, read-out: herbicidal rating (% inhibition)
Procedure: as §1, §2, §3, §4

Downy Brome = conditions: Bromus tectorum, pre-emergence, Dobr, 11.2 kg/ha, 10-14 days, read-out: herbicidal rating (% inhibition)
Procedure: as §1, §2, §3, §4

Row | SMILES | inhibition at 11200 g/ha (Common Lambsquarters) [%] | inhibition at 11200 g/ha (Velvetleaf) [%] | inhibition at 11200 g/ha (Rhizome Johnsongrass) [%] | inhibition at 11200 g/ha (Cocklebur) [%] | inhibition at 11200 g/ha (Pennsylvania Smartweed) [%] | inhibition at 11200 g/ha (Barnyardgrass) [%] | inhibition at 11200 g/ha (Morningglory) [%] | inhibition at 11200 g/ha (Quackgrass) [%] | inhibition at 11200 g/ha (Canada thistle) [%] | inhibition at 11200 g/ha (Yellow Nutsedge) [%] | inhibition at 11200 g/ha (Downy Brome) [%]
1 | CCOc1nc(C(F)(F)F)c(C(=O)OC)c(CC(C)C)c1C(=O)OC [Compound 6, 3,5-pyridinedicarboxylic acid, 2-ethoxy-4-(2-methylpropyl)-6-(trifluoromethyl)-, dimethyl ester] | 75 to 100 | 75 to 100 | 75 to 100 | 25 to 49 | 75 to 100 | 75 to 100 | 75 to 100 | 75 to 100 | 75 to 100 | 25 to 49 | –
2 | CCCOc1nc(C(F)(F)F)c(C(=O)OC)c(CC(C)C)c1C(=O)OCC [Compound 7, 3,5-pyridinedicarboxylic acid, 4-(2-methylpropyl)-2-propyloxy-6-(trifluoromethyl)-,3-ethyl 5-methyl ester] | 75 to 100 | 0 to 24 | 0 to 24 | 0 to 24 | 25 to 49 | 75 to 100 | 0 to 24 | 0 to 24 | 0 to 24 | 0 to 24 | –
3 | CCOc1nc(C(F)(F)F)c(C(=O)OC)c(CC(C)C)c1C(=O)SC [Compound 8, 3-pyridinecarboxylic acid, 6-ethoxy-4-(2-methylpropyl)-5-[(methylthio)carbonyl]-2-(trifluoromethyl)-, methyl ester] | 75 to 100 | 75 to 100 | 0 to 24 | 0 to 24 | 75 to 100 | 75 to 100 | 75 to 100 | 75 to 100 | 0 to 24 | 0 to 24 | –
4 | COC(=O)c1c(OC)nc(C(F)(F)F)c(C(=O)OC)c1CC(=O)O [Compound 13, 3,5-pyridinedicarboxylic acid, 4-(carboxymethyl)-2-methoxy-6-(trifluoromethyl)-, dimethyl ester] | 0 to 24 | 0 to 24 | 0 to 24 | 0 to 24 | – | 0 to 24 | 0 to 24 | 0 to 24 | 0 to 24 | 0 to 24 | 0 to 24
5 | CCOc1nc(C(F)(F)F)c(C(=O)OC)c(CC(C)C)c1C(=O)N(C)C [Compound 17, 3-pyridinecarboxylic acid, 5-[(dimethylamino)carbony]-6-ethoxy-4-(2-methylpropyl)-2-(trifluoromethyl)-, methyl ester] | 50 to 74 | 0 to 24 | 0 to 24 | 0 to 24 | 0 to 24 | 75 to 100 | 0 to 24 | 0 to 24 | 0 to 24 | 0 to 24 | –
6 | CCOc1nc(C(F)(F)F)c(C(=O)OC)c(CC(C)C)c1C(=O)O [Compound 18, 3,5-pyridinedicarboxylic acid, 2-ethoxy-4-(2-methylpropyl)-6-(trifluoromethyl)-, 5-methyl ester] | 50 to 74 | 0 to 24 | 0 to 24 | 25 to 49 | 0 to 24 | 0 to 24 | 0 to 24 | 0 to 24 | 0 to 24 | 0 to 24 | –
7 | COC(=O)c1c(C(F)(F)F)nc(OC)c(N)c1CC(C)C [Compound 32, 3-pyridinecarboxylic acid, 5-amino-6-methoxy-4-(2-methylpropyl)-2-(trifluoromethyl)-, methyl ester] | 75 to 100 | 0 to 24 | – | 0 to 24 | 50 to 74 | 75 to 100 | 0 to 24 | 0 to 24 | 0 to 24 | 0 to 24 | 0 to 24
8 | COC(=O)c1c(OC)nc(C(F)(F)F)c(C=O)c1CC(C)C [Compound 79, 3-pyridinecarboxylic acid, 5-formy1-2-methoxy-4-(2-methylpropyl)-6-(trifluoromethyl)-, methyl ester] | 75 to 100 | 50 to 74 | – | 0 to 24 | 75 to 100 | 75 to 100 | 50 to 74 | 75 to 100 | 75 to 100 | 0 to 24 | 75 to 100
9 | COC(=O)c1c(OCC#N)nc(C(F)(F)F)c(C(=O)OC)c1CC(C)C [Compound 80, 3,5-pyridinedicarboxylic acid, 2-(cyanomethoxy)-4-(2-methylpropyl)-6-(trifluoromethyl)-, dimethyl ester] | 75 to 100 | 75 to 100 | – | 25 to 49 | 75 to 100 | 75 to 100 | 75 to 100 | 25 to 49 | 75 to 100 | 50 to 74 | 75 to 100
10 | COC(=O)c1c(OC)nc(C(F)(F)F)c(C(=O)OCCF)c1CC(C)C [Compound 81, 3,5-pyridinedicarboxylic acid, 2-methoxy-4-(2-methylpropyl)-6-(trifluoromethyl)-, 5-(2-fluoroethyl) 3-methyl ester] | 75 to 100 | 75 to 100 | – | 75 to 100 | 75 to 100 | 75 to 100 | 75 to 100 | 75 to 100 | 75 to 100 | 75 to 100 | 75 to 100
11 | C#CCOC(=O)c1c(C(F)(F)F)nc(OC)c(C(=O)OC)c1CC(C)C [Compound 82, 3,5-pyridinedicarboxylic acid, 2-methoxy-4-(2-methylpropyl)-6-(trifluoromethyl)-, 3-methyl 5-(2-propynyl)ester] | 75 to 100 | 75 to 100 | – | 50 to 74 | 75 to 100 | 75 to 100 | 75 to 100 | 50 to 74 | 75 to 100 | 25 to 49 | 75 to 100
12 | COC(=O)c1c(OC)nc(C(F)(F)F)c(C(=O)Cl)c1CC(C)C [Compound 84, 3-pyridinecarboxylic acid, 5-(chlorocarbonyl)-2-methoxy-4-(2-methylpropyl)-6-(trifluoromethyl)-, methyl ester] | 75 to 100 | 0 to 24 | 0 to 24 | 0 to 24 | – | 75 to 100 | 25 to 49 | 0 to 24 | 75 to 100 | 0 to 24 | 75 to 100
13 | COC(=O)c1c(OC)nc(C(F)(F)F)c(C(=O)OC)c1CBr [Compound 87, 3,5-pyridinedicarboxylic acid, 4-(bromomethyl)-2-methoxy-6-(trifluoromethyl)-, dimethyl ester] | 50 to 74 | 0 to 24 | 0 to 24 | 0 to 24 | – | 0 to 24 | 0 to 24 | 0 to 24 | 0 to 24 | 0 to 24 | 0 to 24
14 | COCc1c(C(=O)OC)c(OC)nc(C(F)(F)F)c1C(=O)OC [Compound 88, 3,5-pyridinedicarboxylic acid, 2-methoxy-4-(methoxymethyl)-6-(trifluoromethyl)-, dimethyl ester] | 50 to 74 | 25 to 49 | 0 to 24 | 0 to 24 | – | 75 to 100 | 25 to 49 | 0 to 24 | 0 to 24 | 0 to 24 | 25 to 49
